Source: patent US20230065953A1, “NOVEL HETEROARYL-TRIAZOLE COMPOUNDS AS PESTICIDES” (Bayer Aktiengesellschaft, priority 2019, published 2023)

Key:
Assay type in all cases: in vivo
[1] = system: Rhipicephalus microplus larvae (strain Parkhurst, resistant against synthetic pyrethroids); test: Rhipicephalus (Boophilus) microplus in-vitro contact test, larval cattle tick; settings: 5 μg/cm^2 (=500 g/ha), after 48 hours, read-out: efficacy (larvae dead or moribund)
Outline: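 Compound in acetone coated onto the inner walls of glass tubes (900 ppm giving 5 μg/cm^2), solvent evaporated, then 20–50 larvae added and held at 27 °C, 85% RH. After 48 h, efficacy scored from negative geotactic behaviour as % dead or moribund larvae.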

[2] = system: adult engorged female ticks (Rhipicephalus microplus); test: Rhipicephalus (Boophilus) microplus injection test; settings: 168 h, 4 μg/animal, egg deposition after 7 days, read-out: efficacy (infertile eggs)
Outline: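 Five adult engorged female ticks each injected into the abdomen with 1 μL of compound in DMSO, then kept in a climate chamber. Fertile egg deposition assessed after 7 days, with unclear eggs held until hatching around 42 days; efficacy 100% means all eggs infertile, 0% all fertile.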

[3] = system: adult cat fleas (Ctenocephalides felis); test: Ctenocephalides felis in-vitro contact test, adult cat flea; settings: 5 μg/cm^2 (=500 g/ha), after 48 hours
Protocol: Ctenocephalides felis—In-Vitro Contact Tests Adult Cat Flea
(§1) 9 mg compound is solved in 1 mL acetone and diluted with acetone to the desired concentration. 250 μL of the test solution is filled in 25 mL glass test tubes and homogeneously distributed on the inner walls by rotation and tilting on a shaking device (2 h at 30 rpm). With a compound concentration of 900 ppm, an inner surface of 44.7 cm^2 and a homogeneous distribution, a dose of 5 μg/cm^2 is achieved.
(§2) After the solvent has evaporated, each test tube is filled with 5-10 adult cat fleas (Ctenocephalides felis), closed with a perforated lid and incubated in a lying position at room temperature and relative humidity. After 48 hours efficacy is determined. The fleas are patted on the ground of the tubes and are incubated on a heating plate at 45-50° C. for at most 5 minutes. Immotile or uncoordinated moving fleas, which are not able to escape the heat by climbing upwards, are marked as dead or moribund.
An efficacy of 100% means all fleas are dead or moribund; 0% means no fleas are dead or moribund.

[4] = system: adult unfed cat fleas (Ctenocephalides felis); test: Ctenocephalides felis oral test; settings: 48 h
Outline: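 About 20 adult unfed fleas fed through parafilm on cattle blood containing compound (DMSO stock diluted in blood), blood held at 37 °C and fleas at room temperature. Mortality (%) scored after 2 days.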

[5] = system: adult brown dog ticks (Rhipicephalus sanguineus); test: Rhipicephalus sanguineus in-vitro contact test with adult brown dog ticks; settings: 5 μg/cm^2 (=500 g/ha), after 48 hours, read-out: efficacy (ticks dead or moribund)
Protocol: Rhipicephalus sanguineus—In-Vitro Contact Tests with Adult Brown Dog Ticks
as §1
as §2, with “brown dog ticks (Rhipicephalus sanguineus),” for “cat fleas (Ctenocephalides felis),”, “ticks” for “fleas”, “ticks,” for “fleas,”
An efficacy of 100% means all ticks are dead or moribund; 0% means no ticks are dead or moribund.

[6] = system: larvae of the banded cucumber beetle (Diabrotica balteata); test: Diabrotica balteata spray test; settings: 168 h, 100 g/ha (=32 μg/well), wheat seeds, after 7 days, read-out: efficacy (seedling growth)
Outline: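 Efficacy in % was read 7 days after infesting with 10-20 larvae per unit. Before infestation, 1-day-germinated wheat seedlings (5 per well) were sprayed with the active ingredient, formulated in acetone and dimethylformamide plus emulsifier and diluted with water containing emulsifier.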

[7] = system: fall armyworm larvae (Spodoptera frugiperda); test: Spodoptera frugiperda spray test (maize leaf sections); settings: 168 h
Outline: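 Percent kill of Spodoptera frugiperda caterpillars read at day 7. Larvae placed on dried Zea mays leaf pieces previously sprayed with test preparation, made from acetone plus DMF and diluted with emulsifier-containing water (1000 ppm).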

[8] = system: green peach aphid (Myzus persicae); test: Myzus persicae oral test; settings: 120 h
Outline: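 Compound was dissolved in acetone, diluted with water and mixed into IPL41 insect medium with sugar under a parafilm seal. A mixed aphid population fed through the parafilm, and mortality (%) was scored after 5 days.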

[9] = system: green peach aphid (Myzus persicae); test: Myzus persicae spray test; settings: foliar, 120 h, Chinese cabbage leaf disks, after 5 days
Outline: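 Percent mortality read 5 days after spraying, where 100% is total kill and 0% none. The spray contained compound in acetone plus dimethylformamide, diluted with 1000 ppm emulsifier water. It was applied to Brassica pekinensis leaf disks carrying mixed-instar green peach aphids.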

[10] = system: adult mosquitoes Aedes aegypti strain MONHEIM; test: Aedes aegypti test (AEDSAE surface treatment & contact assay); settings: 24 hours after contact, read-out: efficacy (mortality)
Protocol: Aedes aegypti test (AEDSAE surface treatment & contact assay) • Solvent: Aceton+2000 ppm rapeseed oil methyl ester (RME)
In order to produce a sufficient, active ingredient containing solution it is necessary to solve the test compound in the solvent-mix (acetone at 2 mg/ml/RME 2000 ppm). This solution is pipetted onto a glazed tile and after evaporation of the acetone, adult mosquitoes of the species Aedes aegypti strain MONHEIM are placed onto the dried surface. The exposure time is 30 minutes.
Mortality in percent (%) is determined 24 hours after contact of the insects to the treated surface. 100% mortality means that all tested insects are dead, whereas 0% means that no insect died.

[11] = system: adult flies Musca domestica strain WHO-N; test: Musca domestica test (MUSCDO surface treatment & contact assay); settings: 24 hours after contact, read-out: efficacy (mortality)
Outline: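 Percent kill read 24 h post-contact, after adult flies (strain WHO-N) spent 30 min on a glazed tile treated with test solution (acetone, 2 mg/ml, plus 2000 ppm rapeseed oil methyl ester) and dried.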

[12] = system: larvae of the southern green stink bug (Nezara viridula); test: Nezara viridula spray test; settings: in Hordeum vulgare, 96 h
Outline: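 Mortality (%) of stink bug larvae on treated barley (Hordeum vulgare) was scored 4 days after infestation. Test solutions came from an acetone/DMF concentrate diluted with water containing 1000 ppm emulsifier and were sprayed onto plants before larvae were added.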

[13] = system: brown planthopper (Nilaparvata lugens); test: Nilaparvata lugens spray test; settings: 96 h, 500 g/ha, rice plants, after 4 days
Protocol: Nilaparvata lugens—Spray Test • Solvent: 78.0 parts by weight of acetone • 1.5 parts by weight of dimethylformamide • Emulsifier: alkylarylpolyglycol ether
To produce a suitable preparation of active compound, 1 part by weight of active compound is mixed with the stated amount of solvents and is diluted with water, containing an emulsifier concentration of 1000 ppm, to the desired concentration. Further test concentrations are prepared by dilution with emulsifier containing water.
Rice plants (Oryza sativa) are sprayed with a preparation of the active ingredient of the desired concentration and the plants are infested with the brown planthopper (Nilaparvata lugens).
After 4 days mortality in % is determined. 100% means all planthoppers have been killed and 0% means none of the planthoppers have been killed.

[14] = surface concentration 4 mg/m^2, 30 min exposure
[15] = surface concentration 20 mg/m^2, 30 min exposure

Structure (SMILES)	pest or weed control at 5 µg/cm2 [1]	pest or weed control at 0.004 mg [2]	efficacy (fleas dead or moribund) [3]	mortality at 100 ppm [4]	pest or weed control at 5 µg/cm2, 500 g/ha [5]	pest or weed control at 32 µg/disc, 100 g/ha [6]	mortality at 100 g/ha [7]	mortality at 4 ppm [8]	mortality at 100 g/ha [9]	mortality at 4 mg/m2 [10, 14]	mortality at 20 mg/m2 [10, 15]	mortality at 4 mg/m2 [11, 14]	mortality at 20 mg/m2 [11, 15]	mortality at 100 g/ha [12]	mortality at 500 g/ha [12]	mortality at 500 g/ha [13]
Cc1nc([C@H](C)NC(=O)c2cc(Br)cc(C#N)c2)n(-c2ncc(C#N)s2)n1 [I-15]	90%	100%	100%	100%	100%	100%	83%									
Cc1nc([C@H](C)NC(=O)c2cc(Br)cc(OC(F)(F)F)c2)n(-c2ncc(C#N)s2)n1 [I-17]	100%	100%	80%	100%	100%	100%	100%	100%								
Cc1nc([C@H](C)NC(=O)c2cc(Cl)cc(C(F)F)c2)n(-c2ncc(C#N)s2)n1 [I-18]	100%	100%		100%	100%	100%	100%	100%	100%	80 to 100%	80 to 100%	90 to 100%	80 to 100%			
Cc1nc([C@H](C)NC(=O)c2cc(Cl)cc(C(F)(F)F)c2)n(-c2ncc(C(=O)N(C)CC#N)s2)n1 [I-23]	100%	100%	100%	90%	100%	100%	83%	100%	90%							
Cc1nc([C@H](C)NC(=O)c2cc(OC(F)(F)F)cc(C3CC3)c2)n(-c2ncc(C(=O)N(C)CC#N)s2)n1 [I-24, N-(cyanomethyl)-2-(5-{(1S)-1-[3-cyclopropyl-5-(trifluoromethoxy)benzamido]ethyl}-3-methyl-1H-1,2,4-triazol-1-yl)-N-methyl-1,3-thiazole-5-carboxamide]	100%	100%	100%	100%	80%	100%	100%	100%	100%							
CNC(=O)c1cnc(-n2ncnc2[C@H](C)NC(=O)c2cc(OC(F)(F)F)cc(S(C)(=O)=O)c2)s1 [I-113]						100%			100%					100%	100%	100%
C[C@H](NC(=O)c1cc(OC(F)F)cc(OC(F)F)c1)c1ncnn1-c1ncc(C(=O)N(C)C)s1 [I-119]						100%	100%		90%					100%	100%	100%
C[C@H](NC(=O)c1cc(OC(F)(F)F)cc(S(C)(=O)=O)c1)c1ncnn1-c1ncc(C(=O)N(C)C)s1 [I-120]							100%		90%					100%	100%	100%
CCN(C)C(=O)c1cnc(-n2nc(C)nc2[C@H](C)NC(=O)c2cc(OC(F)(F)F)cc(C3CC3)c2)s1 [I-129]						100%	100%		100%							100%
C[C@H](NC(=O)c1cc(S(=O)(=O)C(F)(F)F)cc(S(=O)(=O)C(F)(F)F)c1)c1ncnn1-c1ncc(C#N)s1 [I-138]						100%	100%									100%
Cc1nc([C@H](C)NC(=O)c2cc(C(F)(F)F)cc(S(C)(=O)=O)c2)n(-c2ncc(C#N)s2)n1 [I-165]						100%	100%								100%	100%
